Converted amounts (≈) assume the structure as drawn.
Experiments:
[1] = Silymarin solubility in water, CAPTISOL® solution and γ-cyclodextrin solution (Example 2, HPLC); assay type: physicochemical; settings: for solubility: water, thermodynamic from solid, Solubility (mg/ml) of components of silymarin
Method: The solutions were centrifuged for 10 min at 13K rpm. An aliquot of the supernatant was diluted 1:5 for Water, 1:25 for γ-Cyclodextrin and 1:100 for both 0.20 M CAPTISOL® and 0.20M HP-B-Cyclodextrin using MeOH as the diluent. The standard reference was prepared by dissolving silymarin in 10 mg/mL of DMSO and then diluted to 0.50 mg/mL using MeOH.
The change of the saturated solubility of the various components of silymarin in each of the four types of samples can be seen in FIG. 4.
The data shown in Table 6 is plotted in FIGS. 5 and 6. The change of the solubility of the various components of silymarin in each of the three samples can be seen in FIG. 5. The total mutual saturated solubility of all flavonolignan components can be seen in FIG. 6. […] The various components of silymarin also have increased solubility in the CAPTISOL® (0.2M) sample.

[2] = Solubility of silymarin components in water (Example 10, HPLC); assay type: physicochemical; settings: for solubility: water
Method: (§1) Silymarin components including taxifolin, silydianin, silychristin, silybin A, silybin B, isosilybin A, and isosilybin B were tested for their solubility in water and also for their Log D value. The silymarin extract was obtained from Indena® (Indena Code: 9065110). The HPLC system consisted of Waters system equipped with performance PLUS inline degasser along dual λ absorbance detector set at 288 nm. The chromatographic separation of silymarin constituents was achieved on a Symmetry Shield RP18 column (150×4.6 mm, 5 μm); which was maintained at ambient room temperature conditions. The binary mobile phase system consisted of reservoir A (methanol: 10 mM ammonium acetate pH 5 [65:35 v/v]) and reservoir B (10 mM ammonium acetate, pH 5) were run as per gradient program (0-1.9 min: 25% A and 75% B; 2.0-14.9 min: 80% A and 20% B and 15-37.9 min: 80% A and 20% B and 38-40 min: 25% A and 75% B). The flow rate was 1 mL/min throughout the analytical run.

[3] = Pharmacokinetic study in rat; assay type: in vivo; settings: in vivo; for AUC(0-t): AUC(0-2 h) (ng · h/mL)
Method: The Silymarin-CAPTISOL® complex was administered to rat to test its pharmacokinetic properties.
On arrival rats were housed individually in cages at animal care facility in a temperature and humidity controlled room with a 12 h:12 h (light:dark) cycles. The rats were provided with free access to food and water for one week before using for experimental purpose. The 12 rats were equally divided into three groups—Group I: silymarin-CAPTISOL® complex with a CAPTISOL® concentration of 100 mM for oral administration; Group II: silymarin suspension (Control); and Group III: silymarin complex with a CAPTISOL® concentration of 100 mM for intravenous administration. The animals were fasted overnight with free access to water. On the day of experiment, the rat was removed from animal care facility and brought to the procedure lab. The animal was weighed and appropriate dosing volume was determined. For oral administration, rat's head was held in place by gently extending the head back and supporting the lower body. The gavage tube was placed in the mouth and advanced along the lower palate till the esophagus, and the silymarin was administered through the tube. For intravenous administration, the silymarin-CAPTISOL® complex was administered by slow bolus intravenous injection into the tail vein. Approximately 200 μL blood was drawn into heparin coated tubes at pre dose, 0.15, 0.5, 1, 2, 4, 8, 10 and 24 h for oral group II and for intravenous group III. The sampling time points were predose, 0.12, 0.25, 0.5, 1, 2, 4, 8 and 24 h through the jugular vein catheter. Plasma was harvested by centrifuging the blood at 4000 RPM for 5 min and stored frozen at −80±10° C. until analysis.
Stored plasma was thawed just before performing the silymarin components analysis. 200 μL of acetonitrile containing 0.1% of ammonia was added to 50 μL of plasma, and this mixture was vortexed for 5 min and centrifuged at 4° C. for 5 min at 10,000 RPM. After centrifugation, the supernatant was separated and injected into HPLC for analysis of silymarin constituents taxifolin, silydianin, silychristin, silybin A, silybin B, isosilybin A and isosilybin B.
The plasma concentration-time curves of silybin A, silybin B, isosilybin A, and isosilybin B in the Silymarin-CAPTISOL® sample of Group I and the control sample (silymarin suspension) are respectively shown in FIGS. 20A to 20D.

[4] = Log D of silymarin components (octanol/buffer, HPLC); assay type: physicochemical; settings: pH 7.4
Method: as §1
To determine the Log D of silymarin components, the silymarin extract (2 mg) was dissolved in 100% DMSO and then used for the experiment. Different buffers between pH ranges of 1.0 to 12 were prepared by using universal buffer stock containing 25 mM hydrochloric acid, 25 mM citric acid, 25 mM phosphoric acid, 30 mM boric acid and 20 mM sodium chloride. About 45 mL of universal buffer was titrated with Sodium hydroxide (5M) to obtain desired pH. A 10 μL of silymarin stock solution was spiked into Eppendorf tube containing 500 μL each of a buffer and presaturated octanol. This mixture was vortexed for 5 minutes and kept for shaking at room temperature. After 16 h, the mixture was centrifuged at 10,000 RPM for 30 minutes. After centrifugation buffer and octanol phases were separated, both phases were diluted with acetonitrile (1:1) and subject to HPLC analysis for quantitation of individual components of silymarin. The Log D values of each compound at a pH was determined by Log D (pH)=Log [Organic (peak area)/Aqueous (peak area)].

[5] = Silymarin saturated solubility with CAPTISOL® (Example 1, HPLC); settings: for solubility: 25 °C, thermodynamic from solid, Solubility (mg/ml) of flavonolignan components of silymarin, saturated with excess silymarin
Method: CAPTISOL® was dissolved in water to form four solutions with a CAPTISOL® concentration of 0.05 mol/L, 0.1 mol/L, 0.2 mol/L, and 0.3 mol/L respectively. 12 mg of silymarin powder (Sigma Aldrich) was added to 1 mL of each of the four CAPTISOL® solutions on Day 1, another 12 mg Silymarin powder was added on Day 3, and 19-22 mg Silymarin powder was added on Day 7 to ensure that silymarin reached its maximum solubility in each solution. The solutions were stirred in a water bath at 25° C. The solutions were then centrifuged prior to sampling. The supernatant was diluted in MeOH in preparation for HPLC assay.
A reference standard was prepared by mixing silymarin with methanol to provide a methanol solution with a silymarin concentration of 0.1 mg/ml.
HPLC was used to measure the relative concentrations of the different components of silymarin in each sample solution following the method described in Kuki et al., (2012) Chromatogram 75:175-180. The relative concentration of each component of silymarin was measured by comparing the normalized peak area units with that of the standard reference measured by the UV data at 288 nm and assuming equivalent extinction coefficients for all components.
The relative molar amounts of the ten flavonolignan components of silymarin were calculated by dividing the normalized peak area of each component in a sample by the total normalized peak area of the sample.
The concentration of each flavonolignan component of silymarin was calculated from the peak areas in Tables 1a and 1b and the total concentration of silymarin (0.1 mg/ml) in the reference sample, assuming constant extinction coefficients for each component.

[6] = CAPTISOL® (0.2M) in water, saturated
[7] = MeOH standard (0.5 mg/ml), reference
[8] = γ-cyclodextrin (0.15M) (Cavamax) in water, saturated
[9] = γ-cyclodextrin (0.15M), saturated
[10] = 0.05 M CAPTISOL in water, aqueous with cosolvent or surfactant or cyclodextrin, CAPTISOL® (0.05M) in water
[11] = 0.1 M CAPTISOL in water, aqueous with cosolvent or surfactant or cyclodextrin, CAPTISOL® (0.1M) in water
[12] = 0.2 M CAPTISOL in water, aqueous with cosolvent or surfactant or cyclodextrin, CAPTISOL® (0.2M) in water
[13] = 0.3 M CAPTISOL in water, aqueous with cosolvent or surfactant or cyclodextrin, CAPTISOL® (0.3M) in water
[14] = CAPTISOL® (0.05M), saturated solubility
[15] = CAPTISOL® (0.1M), saturated solubility
[16] = CAPTISOL® (0.2M), saturated solubility
[17] = CAPTISOL® (0.3M), saturated solubility
[18] = H2O, saturated solubility, share of total normalized peak area
[19] = MeOH standard (0.1 mg/ml), reference, share of total normalized peak area

| AUC(0-2 h) ([3]; po) [ng·h/mL] | solubility [1] [µg/mL] | solubility [5, 10] [µg/mL] | solubility [5, 11] [µg/mL] | solubility [5, 12] [µg/mL] | solubility [5, 13] [µg/mL] | Percentages of flavonolignan components of silymarin in the sample [5, 14] [%] | Percentages of flavonolignan components of silymarin in the sample [5, 15] [%] | Percentages of flavonolignan components of silymarin in the sample [5, 16] [%] | Percentages of flavonolignan components of silymarin in the sample [5, 17] [%] | Percentages of flavonolignan components of silymarin in the sample [5, 18] [%] | Percentages of flavonolignan components of silymarin in the sample [5, 19] [%] | solubility ([5]; water, H2O) [µg/mL] | Structure (SMILES) | other results |
| --- | --- | --- | --- | --- | --- | --- | --- | --- | --- | --- | --- | --- | --- | --- |
|  |  |  |  |  |  |  |  |  |  |  |  |  | COc1cc([C@H]2Oc3cc([C@H]4Oc5cc(O)cc(O)c5C(=O)[C@H]4O)ccc3O[C@@H]2CO)ccc1O (relative stereo) [2,3-cis-silybin A] | Solubility (mg/ml) of components of silymarin [1, 6]: 2.21 mg/mL; Percentages of components of silymarin flavonolignan in the sample ([1]; CAPTISOL® (0.2M), saturated): 3.47%; Percentages of components of silymarin flavonolignan in the sample ([1]; H2O, saturated): 1.88%; Solubility (mg/ml) of components of silymarin ([1]; H2O, saturated): 0.01 mg/mL; Solubility (mg/ml) of components of silymarin ([1]; MeOH standard (0.5 mg/ml silymarin, dissolved reference, not saturated)): 0.01 mg/mL; Percentages of components of silymarin flavonolignan in the sample [1, 7]: 1.54%; Solubility (mg/ml) of components of silymarin [1, 8]: 0.12 mg/mL; Percentages of components of silymarin flavonolignan in the sample [1, 9]: 1.56% |
|  |  |  |  |  |  |  |  |  |  |  |  |  | COc1cc([C@@H]2Oc3cc([C@H]4Oc5cc(O)cc(O)c5C(=O)[C@H]4O)ccc3O[C@H]2CO)ccc1O (relative stereo) [2,3-cis-silybin B] | Solubility (mg/ml) of components of silymarin [1, 6]: 1.20 mg/mL; Percentages of components of silymarin flavonolignan in the sample ([1]; CAPTISOL® (0.2M), saturated): 1.89%; Percentages of components of silymarin flavonolignan in the sample ([1]; H2O, saturated): 0.75%; Solubility (mg/ml) of components of silymarin ([1]; H2O, saturated): 0.01 mg/mL; Percentages of components of silymarin flavonolignan in the sample [1, 7]: 0.99%; Solubility (mg/ml) of components of silymarin [1, 8]: 0.06 mg/mL; Percentages of components of silymarin flavonolignan in the sample [1, 9]: 0.74% |
| 433 |  |  |  |  |  |  |  |  |  |  |  |  | COc1cc([C@@H]2Oc3ccc([C@H]4Oc5cc(O)cc(O)c5C(=O)[C@@H]4O)cc3O[C@H]2CO)ccc1O [Isosilybin B] | Solubility in water [2]: 6.36 µg/mL (≈ 0.0132 mM); AUC(0-2 h) ([3]; iv): 1417 ng·h/mL; Cmax ([3]; iv): 1308 ng/mL; Tmax ([3]; iv): 7.2 min; % Fabs of silymarin-CAPTISOL® complex compared with silymarin alone ([3]; po): higher % Fabs; AUC of Silymarin-CAPTISOL® complex compared with the control sample ([3]; po): higher AUC; Cmax of Silymarin-CAPTISOL® complex compared with the control sample ([3]; po): higher Cmax; Tmax ([3]; po): 30 min; Log D (7.4 pH) [4]: 2.53 |
| 271 | 30 (≈ 0.0622 mM) | 2230 (≈ 4.62 mM) | 3800 (≈ 7.88 mM) | 6370 (≈ 13.2 mM) | 7330 (≈ 15.2 mM) | 9.55 | 9.86 | 9.64 | 10.22 | 3.15 | 25.35 | 20 (≈ 0.0415 mM) | COc1cc([C@H]2Oc3cc([C@H]4Oc5cc(O)cc(O)c5C(=O)[C@@H]4O)ccc3O[C@@H]2CO)ccc1O [Silybin A] | solubility [2]: 7.71 µg/mL (≈ 0.016 mM); AUC(0-t) ([3]; iv): 3440 ng·h/mL; Cmax ([3]; iv, Cmax (ng/mL)): 7910 ng/mL; Tmax ([3]; iv, Tmax (h)): 7.2 min; % Fabs of silymarin-CAPTISOL® complex compared with silymarin alone ([3]; po): higher % Fabs; AUC of Silymarin-CAPTISOL® complex compared with the control sample ([3]; po): higher AUC; Cmax of Silymarin-CAPTISOL® complex compared with the control sample ([3]; po): higher Cmax; Tmax ([3]; po, Tmax (h)): 30 min; Percentages of flavonolignan components of silymarin in the sample ([5]; H2O, saturated solubility, share of total normalized peak area, listed as silybin A): about 3.15%; logD at 16 h [4]: 2.26 |
| 395 | 30 (≈ 0.0622 mM) | 5590 (≈ 11.6 mM) | 8930 (≈ 18.5 mM) | 13800 (≈ 28.6 mM) | 15800 (≈ 32.6 mM) | 24.01 | 23.18 | 20.90 | 21.96 | 7.72 | 32.00 | 50 (≈ 0.104 mM) | COc1cc([C@@H]2Oc3cc([C@H]4Oc5cc(O)cc(O)c5C(=O)[C@@H]4O)ccc3O[C@H]2CO)ccc1O [Silybin B] | solubility [2]: 21.9 µg/mL (≈ 0.0454 mM); AUC(0-t) ([3]; iv): 5070 ng·h/mL; Cmax ([3]; iv, Cmax (ng/mL)): 12700 ng/mL; Tmax ([3]; iv, Tmax (h)): 7.2 min; Tmax ([3]; po): 37.8 min; Tmax ([3]; po, Tmax (h)): 30 min; Percentages of flavonolignan components of silymarin in the sample ([5]; H2O, saturated solubility, share of total normalized peak area, listed as silybin B): about 7.72%; logD at 16 h [4]: 1.99 |
|  | 440 (≈ 0.912 mM) | 9570 (≈ 19.8 mM) | 15300 (≈ 31.7 mM) | 25500 (≈ 52.8 mM) | 26900 (≈ 55.8 mM) | 41.07 | 39.70 | 38.52 | 37.52 |  | 22.28 | 460 (≈ 0.953 mM) | COc1cc([C@@H]2Oc3c(O)cc([C@H]4Oc5cc(O)cc(O)c5C(=O)[C@@H]4O)cc3[C@H]2CO)ccc1O [Silychristin A] |  |
|  | 60 (≈ 0.124 mM) | 930 (≈ 1.93 mM) | 1150 (≈ 2.38 mM) | 2320 (≈ 4.81 mM) | 2500 (≈ 5.18 mM) | 3.98 | 2.99 | 3.51 | 3.48 | 5.21 | 1.50 | 40 (≈ 0.0829 mM) | COc1cc([C@H]2Oc3c(O)cc([C@H]4Oc5cc(O)cc(O)c5C(=O)[C@@H]4O)cc3[C@@H]2CO)ccc1O [Silychristin B] |  |
|  |  |  |  |  |  |  |  |  |  |  |  |  | COc1cc([C@@H]2Oc3c(O)cc([C@H]4Oc5cc(O)cc(O)c5C(=O)[C@@H]4O)cc3[C@H]2CO)ccc1O [Silychristin] | Solubility in water [2]: 170 µg/mL (≈ 0.352 mM); Log D (7.4 pH) [4]: 0.53 |
